The supplement of paper PMC10307832

Assays:
Assay in all cases: relative viability (nuclei count vs DMSO), 5 days (fraction); higher = more cells survive
Pifithrin_alpha = compound: CC1=CC=C(C=C1)C(=O)CN2C3=C(CCCC3)SC2=N [Pifithrin_alpha]
Outline: (§1)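 A plate was accepted only when its control CV was below 25% and the cells had doubled at least once. Viability is defined from nuclear counts as treated wells divided by vehicle wells, with the median taken across plates. That median covers lung cancer cell lines grown in 1536-well plates, dosed by pinning at five √10-spaced library-drug concentrations, and counted in MetaXpress from 4× Hoechst images after 5 days.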

Axitinib = compound: CNC(=O)c1ccccc1Sc1ccc2c(/C=C/c3ccccn3)n[nH]c2c1 [Axitinib]
Outline: as §1

Bemcentinib = compound: Nc1nc(Nc2ccc3c(c2)CC[C@@H](N2CCCC2)CC3)nn1-c1cc2c(nn1)-c1ccccc1CCC2 [Bemcentinib]
Outline: as §1

Bemcentinib + Bortezomib = compound: Nc1nc(Nc2ccc3c(c2)CC[C@@H](N2CCCC2)CC3)nn1-c1cc2c(nn1)-c1ccccc1CCC2 [Bemcentinib] + CC(C)C[C@H](NC(=O)[C@H](Cc1ccccc1)NC(=O)c1cnccn1)B(O)O [Bortezomib] (partner 0.002 µM)
Outline: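 Relative viability divides the nuclei count in treated wells by that in vehicle wells. Lung cancer cell lines were seeded in 1536-well plates, dosed by pin tool the next day, and fixed and stained after 5 days in one step with final 0.05% Triton X-100, 1% formaldehyde and 1 ug/ml Hoechst. Dosing was a single drug or a fixed anchor-drug dose plus five library-drug doses (not always all listed) in √10 steps, and values are medians of duplicate plates imaged at 4×.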

Cell Line: NCI-H650
- relative viability (Pifithrin_alpha; 3.162 µM): 0.912
- relative viability (Pifithrin_alpha; 10 µM): 1.07
- relative viability (Pifithrin_alpha; 31.62 µM): 0.766
- relative viability (Pifithrin_alpha; 100 µM): 0.863
- relative viability (Axitinib; 0.005 µM): 1.01
- relative viability (Axitinib; 0.01581 µM): 0.983
- relative viability (Axitinib; 0.05 µM): 0.892
- relative viability (Axitinib; 0.1581 µM): 1.1
- relative viability (Axitinib; 0.5 µM): 1.01
- relative viability (Bemcentinib; 0.04 µM): 0.866
- relative viability (Bemcentinib; 0.1265 µM): 1.01
- relative viability (Bemcentinib; 0.4 µM): 1.15
- relative viability (Bemcentinib; 1.265 µM): 0.838
- relative viability (Bemcentinib; 4 µM): 0.871
- relative viability (Bemcentinib + Bortezomib; first compound 0.04 µM): 0.68
- relative viability (Bemcentinib + Bortezomib; first compound 0.1265 µM): 0.855
- relative viability (Bemcentinib + Bortezomib; first compound 0.4 µM): 0.92
- relative viability (Bemcentinib + Bortezomib; first compound 1.265 µM): 0.628
- relative viability (Bemcentinib + Bortezomib; first compound 4 µM): 0.701
